Source: US5795977A, “Water soluble adenosine kinase inhibitors” (Metabasis Therapeutics, Inc., priority 1996, dated 1998)
Where a name gives a salt, the structure may show the parent alone.

Tests used:
Rats (carrageenan paw) = assay: Anti-inflammatory activity, carrageenan paw swelling; type: in vivo; settings: rat, 10 mg/kg, swelling after 3 hours; for Carrageenan Paw (% inhibition) po: oral gavage
Procedure: Carrageenan (Type λ) was suspended in sterile PBS at 1% (w/v), autoclaved for 30 minutes, and stored at room temperature. Rats were pretreated with vehicle or AK inhibitor (10 mg/kg) by oral gavage or i.p. administration and the volume of the left hind paw was measured using a water displacement plethysmometer (Stoelting Co., Wood Dale, Ill.). One hour after oral treatment or 30 minutes after i.p. treatment, the rats were briefly anesthetized, and 0.1 ml of the carrageenan solution was injected subcutaneously into the planar surface of the left hind paw. The ensuing paw swelling was measured by plethysmometry after 3 hours. The paw volume in millileters was […]. Data are presented in Table 2 as the percent inhibition of paw swelling in AK inhibitor treated animals, compared to vehicle treated control animals.

[1] = biological target: partially purified pig heart adenosine kinase or recombinant human adenosine kinase; assay: AK inhibition; type: biochemical; settings: 0.5 μM [U-14C] adenosine, pH 7.0, 37° C., 20 minutes
Procedure: Adenosine kinase activity was measured essentially as described by Yamada et al. Biochim. Biophys. Acta 660, 36-43 (1988) with a few minor modifications. Assay mixtures contained 50 mM TRIS-maleate buffer, pH 7.0, 0.1% BSA, 1 mM ATP 1 mM MgCl2, 0.5 μM [U-^14 C] adenosine (400-600 mCi/mmol) and varying duplicate concentrations of inhibitor. […] The amount of ^14 C-AMP was quantified by scintillation counting.

Row | IC50 [1] [nM] | Structure (SMILES) | Carrageenan Paw (% inhibition) ip (Rats (carrageenan paw)) [%] | Carrageenan Paw (% inhibition) po (Rats (carrageenan paw)) [%]
1 | 1 | C[C@H]1O[C@@H](n2cc(-c3ccccc3)c3c(Nc4ccc(CCO)cc4)ncnc32)[C@H](O)[C@@H]1O [Compound 2, 4-N-(4-(2-Hydroxyethyl)phenyl)amino-5-phenyl-7-(5-deoxy-β-D-ribofuranosyl)pyrrolo[2,3-d]pyrimidine] | 13.2 | 1.9
2 | – | C[C@H]1O[C@@H](n2cc(-c3ccccc3)c3c(Nc4ccc(CCN5CCNCC5)cc4)ncnc32)[C@H](O)[C@@H]1O [Compound 4, 4-N-[4-(2-(1-piperazino)ethyl)phenyl]amino-5-phenyl-7-(5-deoxy-β-D-ribofuranosyl)pyrrolo[2,3-d]pyrimidine] | – | 2.5
3 | 1 | C[C@H]1O[C@@H](n2cc(-c3ccccc3)c3c(Nc4ccc(CCN(C)C)cc4)ncnc32)[C@H](O)[C@@H]1O [Compound 7, 4-N-[4-(2-N,N-dimethylaminoethyl)phenyl]amino-5-phenyl-7-(5-deoxy-β-D-ribofuranosyl)pyrrolo[2,3-d]pyrimidine] | 19.0 | 7.7
4 | 1 | NCCc1ccc(Nc2ncnc3c2c(-c2ccccc2)cn3[C@@H]2O[C@@H](CO)[C@@H](O)[C@H]2O)cc1 [Compound 16, 4-N-(4-(2-aminoethyl)phenyl)amino-5-phenyl-7-α-L-lyxofuranosylpyrrolo[2,3-d]pyrimidine] | 31.6 | 12.4
5 | 5 | C[C@H]1O[C@@H](n2cc(-c3ccccc3)c3c(Nc4ccc(C(N)=NO)cc4)ncnc32)[C@H](O)[C@@H]1O [Compound 37, 4-N-(4-amidoximephenyl)amino-5-phenyl-7-(5-deoxy-1-β-D-ribofuranosylpyrrolo[2,3-d]pyrimidine hydrochloride] | 17.9 | 23.3
6 | 1 | C[C@H]1O[C@@H](n2cc(-c3ccccc3)c3c(Nc4ccc(C(=N)N)cc4)ncnc32)[C@H](O)[C@@H]1O [Compound 39, 4-N -(4-amidinophenyl)amino-5-phenyl-7-(5-deoxy-1-β-ribofuranosyl)pyrrolo[2,3-d]pyrimidine] | – | –
7 | 3000 | CC(=O)NS(=O)(=O)c1ccc(Nc2ncnc3c2c(-c2ccccc2)cn3[C@@H]2O[C@H](C)[C@@H](O)[C@H]2O)cc1 [Compound 40, 4-N-[4-(N-acetylaminosulfonyl)phenyl]amino-5-phenyl-7-(5-deoxy-1-β-D-ribofuranosyl)pyrrolo[2,3-d]pyrimidine] | – | –
8 | 70 | C[C@H]1O[C@@H](n2cc(I)c3c(NCc4ccccn4)ncnc32)[C@H](O)[C@@H]1O [Compound 41, 4-N-(2-pyridylmethylamino)-5-iodo-7-(5-deoxy-1-β-D-ribofuranosyl)pyrrolo[2,3-d]pyrimidine] | – | –
9 | 120 | C[C@H]1O[C@@H](n2cc(I)c3c(NCc4cccnc4)ncnc32)[C@H](O)[C@@H]1O [Compound 44, 4-N-(3-pyridylmethylamino)-5-iodo-7-(5-deoxy-1-β-D-ribofuranosyl)pyrrolo[2,3-d]pyrimidine] | – | –
10 | 500 | C[C@H]1O[C@@H](n2cc(I)c3c(NCc4nc5ccccc5[nH]4)ncnc32)[C@H](O)[C@@H]1O [Compound 45, 4-N-(2-benzimidazolylmethyl)amino-5-iodo-7-(5-deoxy-1-β-D-ribofuranosyl) pyrrolo[(2,3-d)]pyrimidine] | – | –
11 | 220 | OC[C@@H]1O[C@@H](n2cc(I)c3c(NCc4ccccn4)ncnc32)[C@H](O)[C@@H]1O [Compound 46, 4-N-(2-pyridylmethyl)amino-5-iodo-7-(a-L-lyxofuranosyl)pyrrolo(2,3-d)pyrimidine] | – | –
12 | 55 | C[C@H]1O[C@@H](n2cc(-c3cccnc3)c3c(Nc4ccccc4)ncnc32)[C@H](O)[C@@H]1O [Compound 47, 4-N-Phenylamino-5-(3-pyridino)-7-(5-deoxy-1-β-D-ribofuranosyl) pyrrolo[2,3-d]pyrimidine] | 0.0 | 9.8
13 | 300 | C[C@H]1O[C@@H](n2cc(-c3cccnc3)c3c(NCc4ccccn4)ncnc32)[C@H](O)[C@@H]1O [Compound 48, 4-N-(2-pyridylmethyl)amino-5-(3-pyridino)-7-(5-deoxy-1-β-D-ribofuranosyl)pyrrolo[2,3-d]pyrimidine] | – | –
14 | 80 | C[C@H]1O[C@@H](n2cc(-c3ccccc3)c3c(Nc4ccc(CC(=O)O)cc4)ncnc32)[C@H](O)[C@@H]1O [Compound 186, 4-N-(4-Carboxymethylphenyl)amino-5-phenyl-7-(5-deoxy-1-β-D-ribofuranosyl)pyrrolo[2,3-d]pyrimidine] | – | –
15 | 1 | C[C@H]1O[C@@H](n2cc(-c3ccccc3)c3c(Nc4ccc(CC(=O)N5CCNCC5)cc4)ncnc32)[C@H](O)[C@@H]1O [Compound 189] | 30.1 | 12.1
16 | 0.35 | C[C@H]1O[C@@H](n2cc(-c3ccccc3)c3c(Nc4ccc(OCC(=O)N5CCNCC5)cc4)ncnc32)[C@H](O)[C@@H]1O [Compound 196, 4-N-[4-(4-piperazinocarbonylmethyloxy)phenyl]amino-5-phenyl-7-(5-deoxy-1-β-D-ribofuranosyl)pyrrolo(2,3-d)pyrimidine] | 11.8 | 0.0
17 | 9 | C[C@H]1O[C@@H](n2cc(-c3ccc(CN4CCNCC4)cc3)c3c(Nc4ccc(F)cc4)ncnc32)[C@H](O)[C@@H]1O [Compound 197, 4-N-(4-fluorophenyl)amino-5-[4-(N-piperazinomethyl)phenyl]-7-(5-deoxy-β-D-ribofuranosyl)pyrrolo[2,3-d]pyrimidine] | – | –
18 | 120 | C[C@H]1O[C@@H](n2cc(-c3ccc(CN(C)C)cc3)c3c(Nc4ccc(F)cc4)ncnc32)[C@H](O)[C@@H]1O [Compound 198, 4-N-(4-fluorophenyl)amino-5-[4-(dimethylaminomethyl)phenyl]-7-(5-deoxy-β-D-ribofuranosyl)pyrrolo[2,3-d]pyrimidine] | – | –
19 | 550 | C[C@H]1O[C@@H](n2cc(-c3ccc(C(=O)N4CCNCC4)cc3)c3c(Nc4ccc(F)cc4)ncnc32)[C@H](O)[C@@H]1O [Compound 199, 4-N-(4-fluorophenyl)amino-5-[4-(N-piperazinocarbonyl)phenyl]-7-(5-deoxy-1-β-D-ribofuranosyl)pyrrolo(2,3-d]pyrimidine hydrochloride salt] | – | –
20 | 200 | CCN(CC)CCNC(=O)c1ccc(-c2cn([C@@H]3O[C@H](C)[C@@H](O)[C@H]3O)c3ncnc(Nc4ccc(F)cc4)c23)cc1 [Compound 200, 4-N-(4-fluorophenyl)amino-5-[4-(2-N,N-diethylaminoethyleneaminocarbonyl)phenyl]-7-(5-deoxy-1-β-D-ribofuranosyl)pyrrolo[2,3-d]pyrimidine hydrochloride] | – | –
21 | 20 | C[C@H]1O[C@@H](n2cc(-c3ccc(/C=C/C(=O)O)cc3)c3c(Nc4ccc(F)cc4)ncnc32)[C@H](O)[C@@H]1O [Compound 202, 4-N-(4-fluorophenyl)amino-5-[4-(2-carboxy-E-ethenyl)phenyl]-7-(5-deoxy-1-β-D-ribofuranosyl)pyrrolo[2,3-d]pyrimidine] | 3.4 | 3.9
22 | 45 | C[C@H]1O[C@@H](n2cc(-c3ccc(CCC(=O)O)cc3)c3c(Nc4ccc(F)cc4)ncnc32)[C@H](O)[C@@H]1O [Compound 204, 4-N-(4-fluorophenyl)amino-5-[4-(2-carboxyethyl)phenyl]-7-(5-deoxy-1-β-D-ribofuranosyl)pyrrolo[2,3-d]pyrimidine] | – | –
23 | 7 | C[C@H]1O[C@@H](n2cc(-c3cccc(NC(=N)N)c3)c3c(Nc4ccc(F)cc4)ncnc32)[C@H](O)[C@@H]1O [Compound 206, 4-N-(4-fluorophenyl)amino-5-(3-guanidinophenyl)-7-(5-deoxy-1-β-D-ribofuranosyl)pyrrolo[2,3-d]pyrimidine] | 10.1 | 23.5
24 | 80 | C[C@H]1O[C@@H](n2cc(-c3ccccc3)c3c(Nc4ccc(C(=O)O)cc4)ncnc32)[C@H](O)[C@@H]1O [Compound 209, 4-N-(4carboxyphenyl)amino-5-phenyl-7-(5-deoxy-1-β-D-ribofuranosyl)pyrrolo[2,3-d]pyrimidine] | 22.0 | 0.0
25 | 6 | C[C@H]1O[C@@H](n2cc(-c3ccccc3)c3c(Nc4ccc(NC(=N)N)cc4)ncnc32)[C@H](O)[C@@H]1O [Compound 269, 4-N-(4-Guanidinophenyl)amino-5-phenyl-7-(5-deoxy-1-β-D-ribofuranosyl)pyrrolo[2,3-d]pyrimidine] | – | –

Row | Structure (SMILES) | IC50 [1] [nM] | Carrageenan Paw (% inhibition) ip (Rats (carrageenan paw)) [%] | Carrageenan Paw (% inhibition) po (Rats (carrageenan paw)) [%]
26 | CC(=O)Nc1ccc(Nc2ncnc3c2c(I)cn3[C@@H]2O[C@H](C)[C@H]3OC(C)(C)O[C@H]32)cc1 [Compound 29, 4-N-[4-(N-acetylamino)phenyl]amino-5-iodo-7-(1-β-D-5-deoxy-2,3-O-isopropylideneribose)pyrrolo[2,3-d]pyrimidine] | 0.5 | 26.1 | 14.9
27 | CCN(CC)CCNC(=O)c1ccc(Nc2ncnc3c2c(-c2ccccc2)cn3[C@@H]2O[C@H](C)[C@@H](O)[C@H]2O)cc1 [Compound 211] | 0.5 | – | –
